Measurements from US4579861A, “Aryloxypropanolamine derivatives, pharmaceutical compositions and adrenegic thereof” (Pierrel S.p.A., priority 1983, dated 1986).
Where a name gives a salt, the structure may show the parent alone. Read-outs that look alike come from different tables or passages of the source.

Columns and labels:
β1 (guinea pig atria) = target: T1, β1 (guinea pig atria) (Cavia porcellus, UniProt H0W3H1); test: In vitro β-blocking activity, guinea pig atria stimulated with isopropylnoradrenaline (INA); type: cell-based, guinea pig (Hartley albino); conditions: INA 10^-8 M, 32° C.
T1 construct: The atria and the trachea have been suspended respectively in Ringer oxygenated solution; from tissue; host or cells: isolated atria of Hartley albino guinea pigs
Experimental: (§1) Hartley albino guinea pigs of 450 g average weight were used. The atria and the trachea have been suspended respectively in Ringer oxygenated solution at 32° C., and in Krebs carboxygenated solution medicated with pilocarpine, at 37° C.
(§2) After 30' minute stabilization the samples were stimulated with a single submaximal concentration of isopropylnoradrenaline (INA) (10^-8 M for the atria and 10^-7 M for the trachea) in the absence or presence of different antagonist's concentrations.
(§3) The percent inhibitions of the chronotropic and positive inotropic effect (atria) and of relaxation (trachea) were evaluated and the IC50 values were calculated therefrom.

in vivo = conditions: mouse, iv
Experimental: Charles River male CD1 mice, weighing 25 g were used. The administration volume of the compounds, solubilized in H2 O and exceptionally in dimethylsulfoxide, was 0.02 ml/10 g of body weight.

β2 (guinea pig trachea) = β2 (guinea pig trachea) (Cavia porcellus, UniProt Q8K4Z4); test: cell-based; parameters: species or system guinea pig (Hartley albino)
Experimental: as §1, §2, §3

β1 = test: β-blocking activity on conscious rats, i.v. (inhibition of INA positive chronotropic effect); type: in vivo, rat (male Wistar); conditions: 2 rats each compound
Description: The arterial pressure (AP) and heart rate (HR) were graphically recorded on a type R. multichannel Beckman poligraph.

β1 receptors = test: Inhibition of 3H-DHA (dihydroalprenolol) binding to β1 receptors; conditions: for cardioselectivity degree compared with reference compounds: 3H-DHA binding, in words; for IC50: read-out: IC50 β1 (inhibition of H^3-DHA binding), [3H]dihydroalprenolol binding, β1
β2 receptors = test: Inhibition of 3H-DHA (dihydroalprenolol) binding to β2 receptors; conditions: for affinity for the β2 receptors compared with β1 receptors: 3H-DHA binding, in words; for IC50: read-out: IC50 β2 (inhibition of H^3-DHA binding), [3H]dihydroalprenolol binding, β2
[1] = β-Blocking activity in vitro IC50, Atria chronotropism × 10^-7, guinea pig atria, β1, chronotropic effect
[2] = β-Blocking activity in vitro IC50, Atria inotropism × 10^-7, guinea pig atria, β1, positive inotropic effect
[3] = guinea pig atria, β1, chronotropic effect, read-out: β-Blocking activity in vitro IC50, Atria chronotropism × 10^-7
[4] = guinea pig atria, β1, positive inotropic effect, read-out: β-Blocking activity in vitro IC50, Atria inotropism × 10^-7
[5] = guinea pig trachea, β2, relaxation, INA 10^-7 M, 37° C., pilocarpine, read-out: β-Blocking activity in vitro IC50, Trachea β2 × 10^-7
[6] = 3 mg/kg i.v. (Ia-c), could be undervalued by reflex tachycardia
[7] = read-out: β-Blocking activity in vitro IC50, Trachea β2 × 10^-7
[8] = 1 mg/kg i.v., could be undervalued by reflex tachycardia

Sequence of β2 (guinea pig trachea) (Q8K4Z4 whole entry): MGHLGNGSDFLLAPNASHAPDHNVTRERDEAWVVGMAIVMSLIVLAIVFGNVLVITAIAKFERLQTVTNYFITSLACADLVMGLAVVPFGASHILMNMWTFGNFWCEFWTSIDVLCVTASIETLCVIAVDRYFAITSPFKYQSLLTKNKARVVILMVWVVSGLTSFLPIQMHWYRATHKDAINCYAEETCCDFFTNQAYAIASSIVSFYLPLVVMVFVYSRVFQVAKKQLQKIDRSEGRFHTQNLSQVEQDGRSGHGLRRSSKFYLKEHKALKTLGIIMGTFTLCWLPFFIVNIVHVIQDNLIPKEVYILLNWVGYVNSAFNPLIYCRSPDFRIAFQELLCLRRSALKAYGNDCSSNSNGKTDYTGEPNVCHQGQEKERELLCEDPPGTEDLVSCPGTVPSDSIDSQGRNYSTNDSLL
T1 sequence (H0W3H1 1-470): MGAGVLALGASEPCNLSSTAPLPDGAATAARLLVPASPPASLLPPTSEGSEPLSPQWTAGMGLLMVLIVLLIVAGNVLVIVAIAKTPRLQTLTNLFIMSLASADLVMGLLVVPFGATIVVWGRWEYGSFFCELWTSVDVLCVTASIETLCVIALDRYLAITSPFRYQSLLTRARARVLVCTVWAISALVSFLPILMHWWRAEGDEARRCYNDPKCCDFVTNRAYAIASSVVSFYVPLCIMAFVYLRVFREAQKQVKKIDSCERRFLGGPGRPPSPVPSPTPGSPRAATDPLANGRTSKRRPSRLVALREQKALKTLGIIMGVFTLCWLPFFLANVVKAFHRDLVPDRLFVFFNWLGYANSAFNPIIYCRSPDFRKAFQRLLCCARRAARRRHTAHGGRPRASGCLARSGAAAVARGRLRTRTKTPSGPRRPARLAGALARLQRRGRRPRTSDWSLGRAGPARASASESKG

SMILES	LD50 at 168 h (in vivo)	IC50 (β1 (guinea pig atria); [3])	IC50 (β1 (guinea pig atria); [4])	IC50 (β2 (guinea pig trachea); [5])	Vivo inhib. %, conscious rat i.v., chronotropism β1 (β1; [8])	other results
CC(C)NCC(O)COc1ccc(CC(N)=O)cc1 (stereo not shown) [Atenolol, atenolol, reference compound]						IC50 (β1 (guinea pig atria); [1]): 1500 nM; IC50 (β1 (guinea pig atria); [2]): 1700 nM
O=C1CN(c2ccccc2)C(=O)N1CCNCC(O)COc1ccccc1 (stereo not shown) [Ia, 1-Phenyl-3-{[2-(3-phenoxy-2-hydroxy)propylamino]ethyl}hydantoin hydrochloride]	96 mg/kg	140 nM	430 nM	6700 nM		Vivo inhib. %, conscious rat i.v., chronotropism β1 (β1; [6]): 59%
Cc1cccc(OCC(O)CNCCN2C(=O)CN(c3ccccc3)C2=O)c1 (stereo not shown) [Ib]	69 mg/kg	430 nM	940 nM	6200 nM		Vivo inhib. %, conscious rat i.v., chronotropism β1 (β1; [6]): 50%
N#Cc1ccccc1OC[C@H](O)CNCCN1C(=O)CN(c2ccccc2)C1=O [Ic(R), (R)-(+)-1-Phenyl-3-{2-[3-(2-cyanophenoxy)-2-hydroxypropyl]aminoethyl}hydantoin hydrochloride]		1400 nM	3400 nM			IC50 (β2 (guinea pig trachea); [7]): > 100000 nM
N#Cc1ccccc1OC[C@@H](O)CNCCN1C(=O)CN(c2ccccc2)C1=O [Ic(S), (S)-(-)-1-Phenyl-3-{2-[3-(2-cyanophenoxy)-2-hydroxypropyl]aminoethyl}hydantoin hydrochloride]		29 nM	60 nM			IC50 (β2 (guinea pig trachea); [7]): 600 nM
N#Cc1ccccc1OCC(O)CNCCN1C(=O)CN(c2ccccc2)C1=O (stereo not shown) [Ic]	99 mg/kg	120 nM	90 nM	2000 nM		Vivo inhib. %, conscious rat i.v., chronotropism β1 (β1; [6]): 67%; cardioselectivity degree compared with reference compounds (β1 receptors): remarkably higher cardioselectivity degree than that of the reference compounds; IC50 (β1 receptors): 6.7 nM; affinity for the β2 receptors compared with β1 receptors (β2 receptors): remarkably lower than the one shown for β1 receptors; IC50 (β2 receptors): 9300 nM
O=C1CN(c2ccc(Cl)cc2)C(=O)N1CCNCC(O)COc1ccccc1 (stereo not shown) [Id]	45 mg/kg	770 nM	1200 nM	> 10000 nM	18%	
Cc1cccc(OCC(O)CNCCN2C(=O)CN(c3ccc(Cl)cc3)C2=O)c1 (stereo not shown) [Ie]	25 mg/kg	> 10000 nM	> 10000 nM	> 10000 nM	19%	
N#Cc1ccccc1OCC(O)CNCCN1C(=O)CN(c2ccc(Cl)cc2)C1=O (stereo not shown) [If]	70 mg/kg	210 nM	270 nM	6000 nM	68%	
COc1ccc(N2CC(=O)N(CCNCC(O)COc3ccccc3)C2=O)cc1OC (stereo not shown) [Ig]	126 mg/kg	230 nM	210 nM	1500 nM	53%	
COc1ccc(N2CC(=O)N(CCNCC(O)COc3cccc(C)c3)C2=O)cc1OC (stereo not shown) [Ih]	111 mg/kg	460 nM	890 nM	1100 nM	58%	
COc1ccc(N2CC(=O)N(CCNCC(O)COc3ccccc3C#N)C2=O)cc1OC (stereo not shown) [Ii]	137 mg/kg	82 nM	190 nM	430 nM	70%	cardioselectivity degree compared with reference compounds (β1 receptors): remarkably higher cardioselectivity degree than that of the reference compounds; IC50 (β1 receptors): 9.2 nM; affinity for the β2 receptors compared with β1 receptors (β2 receptors): remarkably lower than the one shown for β1 receptors; IC50 (β2 receptors): 400 nM
COc1ccc(N2CC(=O)N(CCNCC(O)COc3ccccc3C#N)C2=O)cc1.Cl (stereo not shown) [Il, 1-(4-Methoxyphenyl)-3-{2-[3-(2-cyanophenoxy)-2-hydroxypropyl]aminoethyl}hydantoin hydrochloride]	135 mg/kg	45 nM	96 nM			IC50 (β2 (guinea pig trachea); [7]): 360 nM
Cl.N#Cc1ccccc1OCC(O)CNCCN1C(=O)CN(c2ccc3c(c2)OCO3)C1=O (stereo not shown) [Im, 1-(3,4-Methylendioxyphenyl)-3-{2-[3-(2-cyanophenoxy)-2-hydroxypropyl]aminoethyl}hydantoin hydrochloride]	132 mg/kg	41 nM	63 nM			IC50 (β2 (guinea pig trachea); [7]): 780 nM
COc1cccc(N2CC(=O)N(CCNCC(O)COc3ccccc3C#N)C2=O)c1 (stereo not shown) [In, 1-(3-Methoxyphenyl)-3-{2-[3-(2-cyanophenoxy)-2-hydroxypropyl]-aminoethyl}hydantoin hydrochloride]	120 mg/kg	76 nM	130 nM	640 nM		
Cc1ccccc1OCC(O)CNCCN1C(=O)CN(c2ccccc2)C1=O (stereo not shown) [Io]	60 mg/kg	115 nM	150 nM	1600 nM		
O=C1CN(c2ccccc2)C(=O)N1CCNCC(O)COc1ccccc1Cl (stereo not shown) [Ip]	80 mg/kg	54 nM	115 nM	600 nM		
CC(CCc1ccccc1)NCC(O)c1ccc(O)c(C(N)=O)c1 (stereo not shown) [Labetalol, labetalol, reference compound]					82%	IC50 (β1 (guinea pig atria); [1]): 240 nM; IC50 (β1 (guinea pig atria); [2]): 210 nM; IC50 (β2 (guinea pig trachea)): 1100 nM
COCCc1ccc(OCC(O)CNC(C)C)cc1 (stereo not shown) [Metoprolol, metoprolol, reference compound]	103 mg/kg				60%	
CC(C)NCC(O)COc1cccc2ccccc12 (stereo not shown) [Propranolol, propranolol, reference compound]						Vivo inhib. %, conscious rat i.v., chronotropism β1 (β1; 0.1 mg/kg i.v. (propranolol)): 73%
